According to publication PMC11500415, “Chemical inhibition of stomatal differentiation by perturbation of the master-regulatory bHLH heterodimer via an ACT-Like domain” (Nature Communications, 2024):
“And” between values parts separate entries of the source, which are not always exact repeats. Equal entries are not always repeated. Where two headings read alike, the source gives them in different places.

Legend:
MUTE_ACTL [1] = biological target: T1, MUTE_ACTL (Arabidopsis thaliana, UniProt Q9M8K6); assay: BLI direct binding; set-up: species or system A. thaliana; conditions: for Kd: read-out: KD
T1 construct: MUTE-ACTL (114-202); made in house; host or cells: E. coli BL21
Description: (§1) A. thaliana SCRM (1-494), ΔNSPCH (98-364), MUTE (1-202), ΔNFAMA (190-414), MUTEΔC (1-114), MUTER133A_R134A, MUTEE162A_E163A, MUTER133A_R134A_E162A_E163A, SCRM-ACTL (405-494), MUTE-ACTL (114-202), SPCH-ACTL (285-364), FAMA-ACTL (306-414), MUTE_ACTLR133A_R134A, MUTE_ACTLE162A_E163A, MUTE_ACTLR133A_R134A_E162A_E163A were cloned into pGEX-4T-1 vector with an N-terminal GST tag and a thrombin cleavage sequence. For protein expression, the constructs were transformed into E. coli strain BL21. For each transformant, a single colony was selected and incubated in 10 ml LB liquid media. The overnight-incubated E. coli suspensions were transferred to 1 L LB medium and incubated at 37 °C for around 2 h until the OD600 reached 0.4–0.6. The isopropyl β-D-1-thiogalactopyranoside ([…] of final concentration) was added to the cultures and the strains were incubated at 22 °C for a further 18 h. GST-fused proteins were purified using glutathione agarose resin. The soluble portion of the cell lysate was loaded onto a GST-Sepharose column. Nonspecifically bound proteins were removed by washing the column with 20 mM Tris pH 8.0, 200 mM NaCl. The bound GST-fused protein was eluted with 10 mm glutathione and 20 mM Tris pH 8.0, 200 mM NaCl. The GST-fused proteins were exchanged with phosphate-buffered saline buffer, and then the solution was treated with 50 μg of thrombin for 10–12 h at 16 ^οC. The GST portion of the protein was cleaved during thrombin digestion, and then the whole solution was reloaded onto the glutathione S-transferase column to obtain pure protein. The purified proteins were further purified by gel filtration on a Superdex-200 (GE) column using fast protein liquid chromatography and phosphate buffer (pH 7.2) as the eluent. The purity of the protein was checked by SDS-PAGE. For detailed lists of oligo DNA and plasmid information, see Supplementary Tables 5, 6, respectively.
The binding affinities of SCRM to MUTE / MUTER133A_R134A / MUTEE162A_E163A / MUTER133A_R134A_E162A_E163A in presence and absence of Stomidazolone (3) and its analogues (AYSJ1059 (5) and AYSJ1061 (6)), and Stomidazolone / AYSJ1059 / AYSJ1061 interactions with GST-tagged SCRM, MUTE, SPCH, FAMA, MUTE ΔACTL, MUTE_ACTL, SCRM_ACTL, SPCH_ACTL and FAMA_ACTL, MUTER133A_134A, MUTEE162A_E163A, MUTER133A_R134A_E162A_E163A were measured using the Octet Red96 system (ForteBio, Pall Life Sciences) following the manufacturer’s protocols. The optical probes coated with anti-GST were first loaded with 500 nM GST tagged proteins before kinetic binding analyses. The experiment was performed in 96-well plates maintained at 30 °C. Each well was loaded with 200 μL reaction volume for the experiment. The binding buffer used in these experiments contained 1× PBS supplemented with 2% DMSO, 0.02% Tween20. […] There was no binding of the analytes to the unloaded probes as shown by the control wells. Binding kinetics to all seven concentrations of the analytes were measured simultaneously using default parameters on the instrument. The data were analyzed using the Octet data analysis software. The association and dissociation curves were fit with the 1:1 homogeneous ligand model. The kobs (observed rate constant) values were used to calculate Kd, with steady-state analysis of the direct binding. See Supplementary Table 3 for details.

MUTE_ACTL [2] = biological target: T1, MUTE_ACTL; assay: ITC direct binding; set-up: species or system A. thaliana
Description: as §1
Binding of the small molecule Stomidazolone (3) to SCRM, MUTE, SPCH, FAMA, MUTEΔC, MUTE_ACTL, SCRM_ACTL, SPCH_ACTL and FAMA_ACTL, MUTER133A_R134A, MUTEE162A_E163A, MUTER133A_R134A_E162A_E163A, as well as SCRM binding to MUTE in the presence and absence of Stomidazolone (3) / AYSJ1059 (5) /AYSJ1061 (6) was characterized at 30 °C using a Malvern PEAQ-ITC microcalorimeter. All the protein samples were dialyzed overnight using PBS buffer containing 2% DMSO and 1 mM DTT. Stomidazolone was dissolved in PBS buffer containing 2% DMSO and 1 mM DTT. Titrations were performed by injecting 1 × 0.5-μL and 12 × 3-μL or 1 × 0.75-μL and 18 × 2-μL or 1 × 0.2-μL and 25 × 1.3-μL aliquots of 1 mM Stomidazolone / AYSJ1059 / AYSJ1061 to 5-30 μM of protein in PBS buffer pH 7.4, containing 2% DMSO and 1 mM DTT. All titrations were carried out at least twice. The raw data were corrected using buffer and protein controls and analyzed using the software supplied by the manufacturer. See Supplementary Table 3 for details.

[3] = MUTE_ACTL on Anti-GST sensor, Stomid 12.5 µM, rep-1, rep-2
[4] = MUTE_ACTL on Anti-GST sensor, Stomid 25 µM, rep-1, rep-2
[5] = MUTE_ACTL on Anti-GST sensor, Stomid 50 µM, rep-1, rep-2
[6] = MUTE_ACTL on Anti-GST sensor, Stomid 100 µM, rep-1, rep-2
[7] = MUTE_ACTL on Anti-GST sensor, Stomid 200 µM, rep-1, rep-2

T1 sequence (Q9M8K6 114-202): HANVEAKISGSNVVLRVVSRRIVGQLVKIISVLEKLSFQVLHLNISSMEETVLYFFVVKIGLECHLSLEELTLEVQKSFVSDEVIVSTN

Structure (SMILES): O=C1C(c2ccccc2)=NC(NS(=O)(=O)c2ccccc2)(c2ccccc2)N1S(=O)(=O)c1ccccc1 (stereo not shown) [Stomidazolone]
- Req/Rmax(%) (MUTE_ACTL [1]; [3]): 87.1% and 49%
- Response (MUTE_ACTL [1]; [3]): 0.391 and 0.425
- kon (MUTE_ACTL [1]; [3]): 4070 M⁻¹ s⁻¹
- Kd (MUTE_ACTL [1]; [3]): 11.9 µM
- RMax (MUTE_ACTL [1]; [4]): 0.49 and 0.53
- Req/Rmax(%) (MUTE_ACTL [1]; [4]): 83.8% and 61.4%
- Response (MUTE_ACTL [1]; [4]): 0.486 and 0.524
- kobs (MUTE_ACTL [1]; [4]): 0.00294 s⁻¹ and 0.00162 s⁻¹
- kon (MUTE_ACTL [1]; [4]): 4080 M⁻¹ s⁻¹
- Kd (MUTE_ACTL [1]; [4]): 12 µM and 11.8 µM
- RMax (MUTE_ACTL [1]; [5]): 0.545 and 0.565
- Req/Rmax(%) (MUTE_ACTL [1]; [5]): 71.3%
- Response (MUTE_ACTL [1]; [5]): 0.535 and 0.563
- Kd (MUTE_ACTL [1]; [5]): 11.9 µM and 11.8 µM
- RMax (MUTE_ACTL [1]; [6]): 0.621 and 0.64
- Req/Rmax(%) (MUTE_ACTL [1]; [6]): 98.7%
- Response (MUTE_ACTL [1]; [6]): 0.611 and 0.632
- Kd (MUTE_ACTL [1]; [6]): 11.7 µM
- RMax (MUTE_ACTL [1]; [7]): 0.63 and 0.655
- Req/Rmax(%) (MUTE_ACTL [1]; [7]): 100%
- Response (MUTE_ACTL [1]; [7]): 0.625 and 0.645
- kobs (MUTE_ACTL [1]; [7]): 0.0329 s⁻¹ and 0.0251 s⁻¹
- Kd (MUTE_ACTL [1]; [7]): 12 µM
- koff (MUTE_ACTL [1]; read-out: kdis(1/s), BLI, sensor at Stomid 3.12 µM): 0.0481 s⁻¹
- koff (MUTE_ACTL [1]; read-out: kdis(1/s), BLI, sensor at Stomid 6.25 µM): 0.0483 s⁻¹
- koff (MUTE_ACTL [1]; read-out: kdis(1/s), BLI, sensor at Stomid 12.5 µM): 0.0485 s⁻¹
- koff (MUTE_ACTL [1]; read-out: kdis(1/s), BLI, sensor at Stomid 25 µM): 0.0483 s⁻¹
- koff (MUTE_ACTL [1]; read-out: kdis(1/s), BLI, sensor at Stomid 50 µM): 0.0485 s⁻¹
- koff (MUTE_ACTL [1]; read-out: kdis(1/s), BLI, sensor at Stomid 100 µM): 0.0491 s⁻¹
- koff (MUTE_ACTL [1]; read-out: kdis(1/s), BLI, sensor at Stomid 200 µM): 0.0486 s⁻¹
- koff (MUTE_ACTL [1]; read-out: kdis(1/s), MUTE_ACTL on Anti-GST sensor, Stomid 6.25 µM, rep-1, rep-2): 0.0483 s⁻¹
- koff (MUTE_ACTL [1]; read-out: kdis(1/s), MUTE_ACTL on Anti-GST sensor, Stomid 12.5 µM, rep-1, rep-2): 0.0485 s⁻¹
- koff (MUTE_ACTL [1]; read-out: kdis(1/s), MUTE_ACTL on Anti-GST sensor, Stomid 25 µM, rep-1, rep-2): 0.0483 s⁻¹
- koff (MUTE_ACTL [1]; read-out: kdis(1/s), MUTE_ACTL on Anti-GST sensor, Stomid 50 µM, rep-1, rep-2): 0.0485 s⁻¹
- kon (MUTE_ACTL [1]; read-out: kon(1/Ms), BLI, sensor at Stomid 3.12 µM): 4110 M⁻¹ s⁻¹
- kon (MUTE_ACTL [1]; read-out: kon(1/Ms), BLI, sensor at Stomid 6.25 µM): 4050 M⁻¹ s⁻¹
- kon (MUTE_ACTL [1]; read-out: kon(1/Ms), BLI, sensor at Stomid 12.5 µM): 4070 M⁻¹ s⁻¹
- kon (MUTE_ACTL [1]; read-out: kon(1/Ms), BLI, sensor at Stomid 25 µM): 4080 M⁻¹ s⁻¹
- kon (MUTE_ACTL [1]; read-out: kon(1/Ms), BLI, sensor at Stomid 50 µM): 4070 M⁻¹ s⁻¹
- kon (MUTE_ACTL [1]; read-out: kon(1/Ms), BLI, sensor at Stomid 100 µM): 4060 M⁻¹ s⁻¹
- kon (MUTE_ACTL [1]; read-out: kon(1/Ms), BLI, sensor at Stomid 200 µM): 4040 M⁻¹ s⁻¹
- kon (MUTE_ACTL [1]; read-out: kon(1/Ms), MUTE_ACTL on Anti-GST sensor, Stomid 6.25 µM, rep-1, rep-2): 4050 M⁻¹ s⁻¹
- kon (MUTE_ACTL [1]; read-out: kon(1/Ms), MUTE_ACTL on Anti-GST sensor, Stomid 12.5 µM, rep-1, rep-2): 4050 M⁻¹ s⁻¹
- kon (MUTE_ACTL [1]; read-out: kon(1/Ms), MUTE_ACTL on Anti-GST sensor, Stomid 25 µM, rep-1, rep-2): 4070 M⁻¹ s⁻¹
- kon (MUTE_ACTL [1]; read-out: kon(1/Ms), MUTE_ACTL on Anti-GST sensor, Stomid 50 µM, rep-1, rep-2): 4070 M⁻¹ s⁻¹
- kon (MUTE_ACTL [1]; read-out: kon(1/Ms), MUTE_ACTL on Anti-GST sensor, Stomid 100 µM, rep-1, rep-2): 4080 M⁻¹ s⁻¹
- kon (MUTE_ACTL [1]; read-out: kon(1/Ms), MUTE_ACTL on Anti-GST sensor, Stomid 200 µM, rep-1, rep-2): 4070 M⁻¹ s⁻¹
- driving force of binding to the ACTL domain (in words) (MUTE_ACTL [2]; ITC data): primarily driven by enthalpic interactions
- -T△S (MUTE_ACTL [2]; ITC, MUTE_ACTL): 14.4 ± 0.3
- △G (MUTE_ACTL [2]; ITC, MUTE_ACTL): -8.1 ± 0.2
- △H (MUTE_ACTL [2]; ITC, MUTE_ACTL): -22.5 ± 0.5
- Kd (MUTE_ACTL [2]; ITC, MUTE_ACTL, ND = no binding): 9.8 ± 1.3 µM
